This is an account of results in patent publication US6693108B2, “Inhibitors of c-JUN N terminal kinases (JNK) and other protein kinases” (Vertex Pharmaceuticals Incorporated, priority 1999, dated 2004).

For orientation: Ki means a measure of affinity in units of concentration, obtained from inhibition or displacement.

A value given as a limit tells only on which side of the number the result lay.

The target of the first test is T1, activated JNK3 (Homo sapiens, UniProt P53779).
T1 construct: One such construct encodes amino acid residues Ser40-Glu402 of JNK3α1 and is preceded by Met and Gly residues; Met-Gly (initiation Met plus Gly added to create the NcoI site) (N); made in house; host or cells: E. coli BL21 (DE3)
T1 sequence (P53779 40-402): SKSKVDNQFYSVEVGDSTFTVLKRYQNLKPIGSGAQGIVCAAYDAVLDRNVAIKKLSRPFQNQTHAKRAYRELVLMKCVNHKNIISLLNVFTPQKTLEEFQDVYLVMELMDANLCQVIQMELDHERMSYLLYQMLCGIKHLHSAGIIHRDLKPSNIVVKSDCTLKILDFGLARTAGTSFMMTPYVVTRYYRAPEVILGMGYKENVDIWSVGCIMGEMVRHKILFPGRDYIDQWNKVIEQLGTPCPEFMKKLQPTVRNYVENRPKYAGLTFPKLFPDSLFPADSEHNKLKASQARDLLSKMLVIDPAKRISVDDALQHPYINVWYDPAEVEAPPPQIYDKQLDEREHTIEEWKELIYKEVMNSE
Kind of test: JNK3 inhibition, spectrophotometric coupled-enzyme assay. The class given is biochemical. The arrangement: Activity in the JNK3 Inhibition Assay (Ki rating): scale not given here. The conditions noted are these: activated JNK3 10 nM, 10 μM ATP, 30° C.; Ki from competitive inhibition model. The source says: A BLAST search of the EST database using the published JNK3α1 cDNA as a query identified an EST clone (#632588) that contained the entire coding sequence for human JNK3α1. Polymerase chain reactions (PCR) using pfu polymerase (Strategene) were used to introduce restriction sites into the cDNA for cloning into the pET-15B expression vector at the NcoI and BamHI sites. The protein was expressed in E. coli. […] This truncation corresponds to Ser 2 of JNK1 and JNK2 proteins, and is preceded by a methionine (initiation) and a glycine residue. The glycine residue was added in order to introduce an NcoI site for cloning into the expression vector. In addition, systematic C-terminal truncations were performed by PCR to identify a construct that give rise to diffraction-quality crystals.
5 mg of JNK3 was diluted to 0.5 mg/ml in 50 mM HEPES buffer, pH 7.5, containing 100 mM NaCl, 5 mM DTT, 20 mM MgCl2 and 1 mM ATP. GST-MKK7(DD) was added at a molar ratio of 1:2.5 GST-MKK7:JNK3. After incubation for 30 minutes at 25° C., the reaction mixture was concentrated 5-fold by ultrafiltration in a Centriprep-30 (Amicon, Beverly, Mass.), diluted to 10 ml and an additional 1 mM ATP added. This procedure was repeated three times to remove ADP and replenish ATP. The final addition of ATP was 5 mM and the mixture incubated overnight at 4° C.
The activated JNK3/GST-MKK7(DD) reaction mixture was exchanged into 50 mM HEPES buffer, pH 7.5, containing 5 mM DTT and 5% glycerol (w/v) by dialysis or ultrafiltration. The reaction mixture was adjusted to 1.1 M potassium phosphate, pH 7.5, and purified by hydrophobic interaction chromatography (at 25° C.) using a Rainin Hydropore column. […] Activated JNK3 (i.e. doubly phosphorylated JNK3) was stored at −70° C. at 0.25-1 mg/ml.
Compounds were assayed for the inhibition of JNK3 by a spectrophotometric coupled-enzyme assay. In this assay, a fixed concentration of activated JNK3 (10 nM) was incubated with various concentrations of a potential inhibitor dissolved in DMSO for 10 minutes at 30° C. in a buffer containing 0.1 M HEPES buffer, pH 7.5, containing 10 mM MgCl2, 2.5 mM phosphoenolpyruvate, 200 μM NADH, 150 μg/mL pyruvate kinase, 50 μg/mL lactate dehydrogenase, and 200 μM EGF receptor peptide. […] The reaction was initiated by the addition of 10 μM ATP and the assay plate is inserted into the spectrophotometer's assay plate compartment that was maintained at 30° C. The decrease of absorbance at 340 nm was monitored as a function of time. The rate data as a function of inhibitor concentration was fitted to competitive inhibition kinetic model to determine the Ki.
Take `COc1cccc(-c2noc(C)c2-c2ccnc(Nc3ccccc3)n2)c1OC` [IIA-12]: the “Activity in the JNK3 Inhibition Assay (Ki rating)” value is listed as “B/C”. On the same count and under the same terms, the value for `Cc1onc(-c2ccccc2)c1-c1ccnc(Nc2cccc(F)c2C)n1` [IIA-70] was “A/B”; that for `COc1ccc(Cl)c(Nc2nccc(-c3c(-c4ccccc4)noc3C)n2)c1` [IIA-71] was “A/B”. On to `COc1ccc(Nc2nccc(-c3c(-c4ccccc4)noc3C)n2)cc1C` [IIA-72], for which the “Activity in the JNK3 Inhibition Assay (Ki rating)” value is “A/B”.

The test is the same for the next values; noted with them: read-out: Activity in the JNK3 Inhibition Assay (Ki rating).
Turning to `Cc1onc(-c2ccccc2)c1-c1ccnc(Nc2ccccc2)n1` [IIA-1, [4-(5-Methyl-3-phenyl-isoxazol-4-yl)-pyrimidin-2-yl]-phenyl-amine], the Ki is < 100 nM. The same measure, in the same setting: the value for `Cc1onc(-c2ccccc2)c1-c1ccnc(Nc2cccc(C#N)c2)n1` [IIA-7] was < 100 nM. Same read-out and setting: the value for `Cc1onc(-c2ccc(F)cc2)c1-c1ccnc(Nc2ccccc2)n1` [IIA-11] was < 100 nM; that for `COc1ccc(-c2noc(C)c2-c2ccnc(Nc3ccccc3)n2)c(OC)c1` [IIA-13] was > 1000 nM; that for `Cc1onc(-c2ccc(Cl)c(Cl)c2)c1-c1ccnc(Nc2ccccc2)n1` [IIA-15] was 100 to 1000 nM. Still for that read-out and setting: the value for `CC(=O)c1ccc(Nc2nccc(-c3c(-c4ccccc4)noc3C)n2)cc1` [IIA-35] was < 100 nM; that for `CSc1cccc(Nc2nccc(-c3c(-c4ccccc4)noc3C)n2)c1` [IIA-37] was < 100 nM.

As to `Cc1cc(Nc2nccc(-c3c(-c4ccccc4)noc3C)n2)ccc1C#N` [IIA-38], the Ki was < 100 nM. For `CC(=O)c1cccc(Nc2nccc(-c3c(-c4ccccc4)noc3C)n2)c1` [IIA-39], the Ki was < 100 nM. As for `CCc1onc(-c2ccccc2)c1-c1ccnc(Nc2ccccc2)c1` [IIA-40], the Ki is < 100 nM. Still for that read-out and setting: under `Cc1onc(-c2ccccc2)c1-c1ccnc(Nc2ccc(F)cc2)n1` [IIA-42] stands < 100 nM; under `Cc1onc(-c2ccccc2)c1-c1ccnc(Nc2cccc(C(=O)O)c2)c1` [IIA-43], < 100 nM.

Turning to `Cc1onc(-c2ccccc2)c1-c1ccnc(Nc2ccc(-c3ccccc3)cc2)n1` [IIA-44], the Ki is < 100 nM.

Take `CSc1ccc(Nc2nccc(-c3c(-c4ccccc4)noc3C)n2)cc1` [IIA-46]: the Ki was < 100 nM. As to `COc1ccc(Nc2cc(-c3c(-c4ccccc4)noc3C)ccn2)cc1` [IIA-47], the Ki is < 100 nM. Same read-out and setting: under `Cc1onc(-c2ccccc2)c1-c1ccnc(Nc2ccccc2)c1` [IIA-52, [4-(5-Methyl-3-phenyl-isoxazol-4-yl)-pyridin-2-yl]phenyl-amine] stands < 100 nM. Same read-out and setting: under `Cc1onc(-c2ccccc2)c1-c1ccnc(Nc2ccc(C(=O)O)cc2)c1` [IIA-53] stands < 100 nM; under `Cc1onc(-c2ccccc2F)c1-c1ccnc(Nc2ccccc2)n1` [IIA-55], < 100 nM; under `Cc1onc(-c2ccccc2)c1-c1ccnc(Nc2ccc(F)cc2F)n1` [IIA-56], < 100 nM.

For the compound `Cc1onc(-c2ccccc2)c1-c1ccnc(Nc2ccccc2F)n1` [IIA-59], the Ki is < 100 nM.

With `Cc1onc(-c2c(F)cccc2F)c1-c1ccnc(Nc2ccccc2)n1` [IIA-60], the Ki was < 100 nM. On to `COc1ccc(Nc2nccc(-c3c(-c4ccccc4)noc3C)n2)c(C)c1` [IIA-61], for which the inhibition constant Ki was < 100 nM.

Consider `COc1ccccc1Nc1nccc(-c2c(-c3ccccc3)noc2C)n1` [IIA-62], for which the Ki was < 100 nM. Turning to `Cc1onc(-c2ccccc2)c1-c1ccnc(Nc2ccc(S(C)(=O)=O)cc2)n1` [IIA-63], the Ki is < 100 nM. On to `COC(=O)c1ccc(Nc2cc(-c3c(-c4ccccc4)noc3C)ccn2)cc1` [IIA-64], for which the Ki is < 100 nM.

As to `Cc1onc(-c2cccc(F)c2)c1-c1ccnc(Nc2ccccc2)n1` [IIA-66], the Ki is < 100 nM.

For the compound `Cc1onc(-c2ccccc2)c1-c1ccnc(Nc2cccc(C#N)c2)c1` [IIA-67], the Ki was < 100 nM. Still for that read-out and setting: the value for `Cc1onc(-c2cc(F)ccc2F)c1-c1ccnc(Nc2ccccc2)n1` [IIA-74] was 100 to 1000 nM; that for `Cc1onc(-c2c(F)cccc2Cl)c1-c1ccnc(Nc2ccccc2)n1` [IIA-75] was 100 to 1000 nM. Take `Cc1onc(-c2ccccc2Cl)c1-c1ccnc(Nc2ccccc2)n1` [IIA-76]: the Ki lay in the range of 100 to 1000 nM. Still for that read-out and setting: under `Cc1onc(-c2ccccc2Br)c1-c1ccnc(Nc2ccccc2)n1` [IIA-79] stands 100 to 1000 nM; under `Cc1onc(-c2cccc(F)c2F)c1-c1ccnc(Nc2ccccc2)n1` [IIA-80], 100 to 1000 nM; under `Cc1onc(-c2cccc(C(F)(F)F)c2)c1-c1ccnc(Nc2ccccc2)n1` [IIA-82], 100 to 1000 nM.

With `Cc1onc(-c2cc(F)cc(F)c2)c1-c1ccnc(Nc2ccccc2)n1` [IIA-83], the Ki was 100 to 1000 nM. Turning to `Cc1onc(-c2c(Cl)cccc2Cl)c1-c1ccnc(Nc2ccccc2)n1` [IIA-84], the inhibition constant (Ki) lay in the range of 100 to 1000 nM. For the compound `COc1cccc(-c2noc(C)c2-c2ccnc(Nc3ccccc3)n2)c1OC` [IIA-85], the Ki is > 1000 nM. Take `Cc1noc(C)c1-c1ccnc(Nc2ccccc2)n1` [IIA-86]: the Ki is > 1000 nM.

Regarding `Cc1onc(C2CC2)c1-c1ccnc(Nc2ccccc2)n1` [IIA-87], the Ki is > 1000 nM. For the compound `Cc1onc(C(C)(C)C)c1-c1ccnc(Nc2ccccc2)n1` [IIA-90], the Ki is < 100 nM.

Consider `Cc1onc(-c2c(F)cccc2F)c1-c1ccnc(Nc2cccc(C#N)c2)n1` [IIA-92], for which the Ki was < 100 nM.

On to `Cc1onc(-c2c(F)cccc2F)c1-c1ccnc(Nc2ccc(C#N)cc2)n1` [IIA-93], for which the Ki is < 100 nM.

For the compound `Cc1onc(-c2c(F)cccc2F)c1-c1ccnc(Nc2cccc(F)c2)n1` [IIA-94], the Ki is < 100 nM. For `Cc1onc(-c2c(F)cccc2F)c1-c1ccnc(Nc2ccc(F)cc2)n1` [IIA-95], the Ki was < 100 nM. Turning to `CSc1ccc(Nc2nccc(-c3c(-c4c(F)cccc4F)noc3C)n2)cc1` [IIA-97], the Ki was < 100 nM. For `Cc1onc(-c2ccccc2)c1-c1ccnc(Nc2ccc(N(C)C)cc2)c1` [IIA-98], the Ki is < 100 nM. On to `Cc1ccc(Nc2nccc(-c3c(-c4ccccc4)noc3C)n2)cc1` [IIA-103], for which the Ki was < 100 nM. On to `Cc1ccccc1-c1noc(C)c1-c1ccnc(Nc2ccccc2)n1` [IIA-104], for which the Ki is < 100 nM.

As for `Cc1ccccc1-c1noc(C)c1-c1ccnc(Nc2ccc(C#N)c(F)c2)n1` [IIA-105], the Ki is < 100 nM. Same read-out and setting: under `Cc1cccc(Nc2nccc(-c3c(-c4ccccc4C)noc3C)n2)c1` [IIA-108] stands < 100 nM; under `Cc1ccccc1-c1noc(C)c1-c1ccnc(Nc2cccc(C#N)c2)n1` [IIA-109], < 100 nM; under `Cc1onc(-c2ccccc2C(F)(F)F)c1-c1ccnc(Nc2ccc(C#N)c(F)c2)n1` [IIA-110], > 1000 nM. Consider `Cc1onc(-c2ccccc2C(F)(F)F)c1-c1ccnc(Nc2ccccc2)n1` [IIA-112], for which the Ki was > 1000 nM.

Take `Cc1onc(-c2ccc3c(c2)OCO3)c1-c1ccnc(Nc2ccccc2)n1` [IIA-115]: the Ki lay in the range of 100 to 1000 nM. With `Cc1onc(-c2cccc(OCc3ccccc3)c2)c1-c1ccnc(Nc2ccc(C#N)c(F)c2)n1` [IIA-117], the Ki lay within 100 to 1000 nM. `Cc1onc(-c2cccc(OCc3ccccc3)c2)c1-c1ccnc(Nc2ccccc2)n1` [IIA-119]: the Ki lay in the range of 100 to 1000 nM. As for `Cc1onc(-c2cccc([N+](=O)[O-])c2)c1-c1ccnc(Nc2ccccc2)n1` [IIA-123], the Ki lay within 100 to 1000 nM.

Consider `Cc1onc(-c2cccc(C#N)c2)c1-c1ccnc(Nc2cccc(C#N)c2)n1` [IIA-126], for which the Ki lay within 100 to 1000 nM. Regarding `Cc1onc(-c2cccc(C#N)c2)c1-c1ccnc(Nc2ccccc2)n1` [IIA-127], the Ki was 100 to 1000 nM. On to `CCOC(=O)c1ccc(Nc2nccc(-c3c(-c4cccc([N+](=O)[O-])c4)noc3C)n2)cc1` [IIA-128], for which the Ki lay within 100 to 1000 nM. In the case of `COC(=O)c1cccc(Nc2nccc(-c3c(-c4cccc(C#N)c4)noc3C)n2)c1` [IIA-129], the Ki lay within 100 to 1000 nM.

Consider `CCOC(=O)c1cccc(Nc2nccc(-c3c(-c4ccccc4)noc3C)n2)c1` [IIA-130], for which the Ki is < 100 nM.
